In patent US7446199B2, “Compositions useful as inhibitors of protein kinases” (Vertex Pharmaceuticals Incorporated, priority 2003, dated 2008):

Legend:
Type in all cases: biochemical
[1] = target: c-Met (Homo sapiens, UniProt P08581); experiment: Ki determination for the inhibition of c-Met, coupled enzyme system; conditions: 200 μM ATP, 10 μM polyGluTyr, 80 nM c-Met, 30° C.
Description: Compounds were screened for their ability to inhibit c-Met kinase activity using a standard coupled enzyme system (Fox et al., Protein Sci. 1998, 7, 2249). Reactions were carried out in a solution containing 100 mM HEPES (pH 7.5), 10 mM MgCl2, 25 mM NaCl, 300 μM NADH, 1 mM DTT, and 1.5% DMSO. Final substrate concentrations in the assay were 200 μM ATP (Sigma Chemicals, St Louis, Mo.) and 10 μM polyGluTyr (Sigma Chemical Company, St. Louis). Reactions were carried out at 30° C. and 80 nM c-Met. Final concentrations of the components of the coupled enzyme system were 2.5 mM phosphoenolpyruvate, 300 μM NADH, 30 μg/ml pyruvate kinase and 10 μg/ml lactate dehydrogenase.
An assay stock buffer solution was prepared containing all of the reagents listed above with the exception of ATP and a test compound of the present invention. The assay stock buffer solution (175 μl) was incubated in a 96 well plate with 5 μl of the test compound of the present invention at final concentrations spanning 0.006 μM to 12.5 μM at 30° C. for 10 minutes. Typically, a 12-point titration was conducted by preparing serial dilutions (from 10 mM compound stocks) with DMSO of the test compounds of the present invention in daughter plates. The reaction was initiated by the addition of 20 μl of ATP (final concentration 200 μM). Rates of reaction were obtained using a Molecular Devices Spectramax plate reader (Sunnyvale, Calif.) over 10 minutes at 30° C. The Ki values were determined from the rate data as a function of inhibitor concentration.

[2] = target: GSK-3β, (AA 1-420) (Homo sapiens, UniProt P49841); experiment: GSK-3 inhibition assay, coupled enzyme system; conditions: 20 μM ATP, 300 μM peptide, 20 nM GSK-3b, 30° C.; read-out: Ki values (GSK3)
GSK-3β, (AA 1-420), sequence (P49841 whole entry, the tested form may be a part): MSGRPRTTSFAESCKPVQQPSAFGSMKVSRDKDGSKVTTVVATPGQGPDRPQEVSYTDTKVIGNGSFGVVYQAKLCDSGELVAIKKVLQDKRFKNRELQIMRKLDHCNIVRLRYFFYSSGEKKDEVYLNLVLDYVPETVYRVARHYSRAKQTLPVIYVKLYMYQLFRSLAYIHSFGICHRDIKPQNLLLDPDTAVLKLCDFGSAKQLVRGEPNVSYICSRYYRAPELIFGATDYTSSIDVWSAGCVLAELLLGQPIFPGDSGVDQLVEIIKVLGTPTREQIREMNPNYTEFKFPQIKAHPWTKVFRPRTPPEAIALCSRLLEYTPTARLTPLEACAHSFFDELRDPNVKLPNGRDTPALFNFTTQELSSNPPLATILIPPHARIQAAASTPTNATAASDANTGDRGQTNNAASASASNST
Description: Compounds of the present invention were screened for their ability to inhibit GSK-3β, (AA 1-420) activity using a standard coupled enzyme system (Fox et al., Protein Sci. 1998, 7, 2249). Reactions were carried out in a solution containing 100 mM HEPES (pH 7.5), 10 mM MgCl2, 25 mM NaCl, 300 μM NADH, 1 mM DTT and 1.5% DMSO. Final substrate concentrations in the assay were 20 μM ATP (Sigma Chemicals, St Louis, Mo.) and 300 μM peptide (American Peptide, Sunnyvale, Calif.). Reactions were carried out at 30° C. and 20 nM GSK-3b. Final concentrations of the components of the coupled enzyme system were 2.5 mM phosphoenolpyruvate, 300 μM NADH, 30 μg/ml pyruvate kinase and 10 μg/ml lactate dehydrogenase.
An assay stock buffer solution was prepared containing all of the reagents listed above with the exception of ATP and the test compound of the present invention. The assay stock buffer solution (175 μl) was incubated in a 96 well plate with 5 μl of the test compound of the present invention at final concentrations spanning 0.002 μM to 30 μM at 30° C. for 10 min. Typically, a 12 point titration was conducted by preparing serial dilutions (from 10 mM compound stocks) with DMSO of the test compounds of the present invention in daughter plates. The reaction was initiated by the addition of 20 μl of ATP (final concentration 20 μM). Rates of reaction were obtained using a Molecular Devices Spectramax plate reader (Sunnyvale, Calif.) over 10 min at 30° C. The Ki values were determined from the rate data as a function of inhibitor concentration.

[3] = target: SYK (Homo sapiens, UniProt P43405); experiment: SYK enzyme assay, coupled enzyme assay; conditions: 200 μM ATP, 4 μM poly Gly-Tyr peptide, 30° C.
Description: Compounds were screened for their ability to inhibit SYK using a standard coupled enzyme assay (Fox et al., Protein Sci. 1998, 7, 2249). Reactions were carried out in 100 mM HEPES (pH 7.5), 10 mM MgCl2, 25 mM NaCl, 1 mM DTT and 1.5% DMSO. Final substrate concentrations in the assay were 200 μM ATP (Sigma chemical Co.) and 4 μM poly Gly-Tyr peptide (Sigma Chemical Co.). Assays were carried out at 30° C. and 200 nM SYK. Final concentrations of the components of the coupled enzyme system were 2.5 mM phosphoenolpyruvate, 300 μM NADH, 30 μg/ml pyruvate kinase and 10 μg/ml lactate dehydrogenase.
An assay stock buffer solution was prepared containing all of the reagents listed above, with the exception of SYK, DTT, and the test compound of interest of the present invention. 56 μl of the test reaction was placed in a 96 well plate followed by the addition of 1 μl of 2 mM DMSO stock containing the test compound of the present invnetion (final compound concentration 30 μM). The plate was pre-incubated for ˜10 minutes at 30° C. and the reaction initiated by the addition of 10 μl of enzyme (final concentration 25 nM). Rates of reaction were obtained using a BioRad Ultramark plate reader (Hercules, Calif.) over a 5 minute read time at 30° C., and Ki values for the compounds of the present invention were determined according to standard methods.

[4] = target: T1, JAK3 (Homo sapiens, UniProt P52333); experiment: JAK3 inhibition assay (ELISA, Poly (Glu, Ala, Tyr) coated plates); conditions: 2 mM ATP, 60 minutes at 30° C.
T1 sequence (P52333 1-1124): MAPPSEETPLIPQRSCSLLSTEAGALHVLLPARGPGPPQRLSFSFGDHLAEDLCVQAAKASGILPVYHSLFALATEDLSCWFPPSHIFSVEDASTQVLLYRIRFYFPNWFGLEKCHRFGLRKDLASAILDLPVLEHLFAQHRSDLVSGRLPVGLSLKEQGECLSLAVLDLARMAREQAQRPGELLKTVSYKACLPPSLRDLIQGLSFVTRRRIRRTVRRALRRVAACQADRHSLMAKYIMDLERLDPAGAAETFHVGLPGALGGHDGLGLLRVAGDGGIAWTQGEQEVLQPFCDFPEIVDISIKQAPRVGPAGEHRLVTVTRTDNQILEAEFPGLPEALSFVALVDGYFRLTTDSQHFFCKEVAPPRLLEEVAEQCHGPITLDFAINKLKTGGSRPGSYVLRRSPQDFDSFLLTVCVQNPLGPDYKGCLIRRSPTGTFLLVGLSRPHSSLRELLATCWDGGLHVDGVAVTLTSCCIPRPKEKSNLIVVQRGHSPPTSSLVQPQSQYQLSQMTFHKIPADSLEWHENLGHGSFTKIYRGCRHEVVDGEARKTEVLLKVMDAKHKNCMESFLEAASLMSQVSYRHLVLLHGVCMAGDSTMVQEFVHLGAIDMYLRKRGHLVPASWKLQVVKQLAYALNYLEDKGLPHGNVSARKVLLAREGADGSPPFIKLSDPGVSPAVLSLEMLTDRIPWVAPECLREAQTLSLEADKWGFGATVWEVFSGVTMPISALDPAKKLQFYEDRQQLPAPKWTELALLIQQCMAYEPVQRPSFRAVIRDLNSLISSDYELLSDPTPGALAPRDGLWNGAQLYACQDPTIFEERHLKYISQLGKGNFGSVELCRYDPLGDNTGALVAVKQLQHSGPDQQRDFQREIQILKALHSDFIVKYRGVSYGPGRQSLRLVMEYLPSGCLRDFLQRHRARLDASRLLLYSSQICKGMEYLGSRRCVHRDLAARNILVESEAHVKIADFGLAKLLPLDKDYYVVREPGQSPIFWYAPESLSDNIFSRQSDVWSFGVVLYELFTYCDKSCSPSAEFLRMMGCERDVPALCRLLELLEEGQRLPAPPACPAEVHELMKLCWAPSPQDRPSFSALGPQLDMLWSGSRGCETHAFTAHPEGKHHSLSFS
Description: Compound inhibition of JAK3 was assayed by the method described by G. R. Brown, et al., Bioorg. Med. Chem. Lett. 2000, vol. 10, pp 575-579 in the following manner. Into Maxisorb plates, previously coated at 4° C. with Poly (Glu, Ala, Tyr) 6:3:1 then washed with phosphate buffered saline 0.05% and Tween (PBST), was added 2 mM ATP, 5 mM MgCl2, and a solution of compound in DMSO. The reaction was started with JAK enzyme and the plates incubated for 60 minutes at 30° C. The plates were then washed with PBST, […] HRP-Conjugated 4G10 antibody was added, and the plate incubated for 90 minutes at 30° C. The plate was again washed with PBST, […] TMB solution is added, and the plates were incubated for another 30 minutes at 30° C. Sulfuric acid ([…] of 1M) was added to stop the reaction and the plate is read at 450 nm to obtain the optical densities for analysis to determine IC50 values.

[5] = target: T2, c-KIT (Homo sapiens, UniProt P10721); experiment: Inhibition of c-KIT, radiometric filter-binding assay; conditions: 700 μM ATP, 0.5 mg/mL pE4Y, room temperature
T2 construct: 0.02% BSA and 25 nM c-KIT
T2 sequence (P10721 26-976): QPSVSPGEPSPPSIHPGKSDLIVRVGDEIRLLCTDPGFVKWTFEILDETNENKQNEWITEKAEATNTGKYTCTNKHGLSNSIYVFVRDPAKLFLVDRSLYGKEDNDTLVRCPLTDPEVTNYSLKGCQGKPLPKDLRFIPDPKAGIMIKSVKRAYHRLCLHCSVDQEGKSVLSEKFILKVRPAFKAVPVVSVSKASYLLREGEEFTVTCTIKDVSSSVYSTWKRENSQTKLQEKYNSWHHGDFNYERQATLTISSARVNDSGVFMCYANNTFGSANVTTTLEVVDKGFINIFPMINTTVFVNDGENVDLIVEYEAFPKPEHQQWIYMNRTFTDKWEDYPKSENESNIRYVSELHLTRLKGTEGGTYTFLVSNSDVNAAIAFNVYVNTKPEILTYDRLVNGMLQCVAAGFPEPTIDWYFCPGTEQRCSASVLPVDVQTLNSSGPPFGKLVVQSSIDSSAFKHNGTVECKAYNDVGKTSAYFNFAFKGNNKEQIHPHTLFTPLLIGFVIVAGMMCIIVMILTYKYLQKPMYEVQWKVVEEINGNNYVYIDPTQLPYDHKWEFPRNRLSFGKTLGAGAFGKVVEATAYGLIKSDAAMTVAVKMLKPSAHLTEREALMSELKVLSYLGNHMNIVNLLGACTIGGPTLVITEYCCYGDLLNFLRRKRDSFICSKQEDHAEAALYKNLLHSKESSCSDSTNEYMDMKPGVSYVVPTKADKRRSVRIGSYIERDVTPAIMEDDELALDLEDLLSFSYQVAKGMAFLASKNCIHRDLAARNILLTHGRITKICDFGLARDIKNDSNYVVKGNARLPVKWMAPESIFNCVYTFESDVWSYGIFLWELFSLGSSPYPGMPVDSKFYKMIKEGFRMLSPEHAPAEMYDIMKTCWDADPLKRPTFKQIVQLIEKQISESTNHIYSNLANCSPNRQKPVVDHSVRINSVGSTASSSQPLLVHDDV
Description: Compounds are screened for their ability to inhibit c-KIT activity using a radiometric filter-binding assay. This assay monitors the ^33P incorporation into a substrate poly(Glu, Tyr) 4:1 (pE4Y). Reactions are carried out in a solution containing 100 mM HEPES (pH 7.5), 10 mM MgCl2, 25 mM NaCl, 1 mM DTT, 0.01% BSA and 2.5% DMSO. Final substrate concentrations in the assay were 700 μM ATP and 0.5 mg/mL pE4Y (both from Sigma Chemicals, St Louis, Mo.). The final concentration of compounds is generally between 0.01 and 5 μM. Typically, a 12-point titration is conducted by preparing serial dilutions from 10 mM DMSO stock of test compound. Reactions were carried out at room temperature.
Two assay solutions are prepared. Solution 1 contains 100 mM HEPES (pH 7.5), 10 mM MgCl2, 25 mM NaCl, 1 mg/ml pE4Y and 1.4 mM ATP(containing 0.5 μCi of [γ-^33P]ATP for each reaction). Solution 2 contains 100 mM HEPES (pH 7.5), 10 mM MgCl2, 25 mM NaCl, 2 mM DTT, 0.02% BSA and 25 nM c-KIT. The assay is run on a 96 well plate by mixing 33 μL of Solution1 and 1.65 μL of the test compounds. The reaction is initiated with 33 μL of Solution2. After incubation for 20 minutes at room temperature, the reaction was stopped with 50 μL of 10% TCA containing 0.2 mM of ATP. All of the reaction volume is then transferred to a filter plate and washed with 5% TCA by a Harvester9600 from TOMTEC (Hamden, Conn.). The amount of ^33P incorporation into pE4y is analyzed by a Packard TopCount Microplate Scintillation Counter (Meriden, Conn.). The data is fitted using Prism software to get an IC50 or Ki.

c-Met, sequence (P08581 25-1390): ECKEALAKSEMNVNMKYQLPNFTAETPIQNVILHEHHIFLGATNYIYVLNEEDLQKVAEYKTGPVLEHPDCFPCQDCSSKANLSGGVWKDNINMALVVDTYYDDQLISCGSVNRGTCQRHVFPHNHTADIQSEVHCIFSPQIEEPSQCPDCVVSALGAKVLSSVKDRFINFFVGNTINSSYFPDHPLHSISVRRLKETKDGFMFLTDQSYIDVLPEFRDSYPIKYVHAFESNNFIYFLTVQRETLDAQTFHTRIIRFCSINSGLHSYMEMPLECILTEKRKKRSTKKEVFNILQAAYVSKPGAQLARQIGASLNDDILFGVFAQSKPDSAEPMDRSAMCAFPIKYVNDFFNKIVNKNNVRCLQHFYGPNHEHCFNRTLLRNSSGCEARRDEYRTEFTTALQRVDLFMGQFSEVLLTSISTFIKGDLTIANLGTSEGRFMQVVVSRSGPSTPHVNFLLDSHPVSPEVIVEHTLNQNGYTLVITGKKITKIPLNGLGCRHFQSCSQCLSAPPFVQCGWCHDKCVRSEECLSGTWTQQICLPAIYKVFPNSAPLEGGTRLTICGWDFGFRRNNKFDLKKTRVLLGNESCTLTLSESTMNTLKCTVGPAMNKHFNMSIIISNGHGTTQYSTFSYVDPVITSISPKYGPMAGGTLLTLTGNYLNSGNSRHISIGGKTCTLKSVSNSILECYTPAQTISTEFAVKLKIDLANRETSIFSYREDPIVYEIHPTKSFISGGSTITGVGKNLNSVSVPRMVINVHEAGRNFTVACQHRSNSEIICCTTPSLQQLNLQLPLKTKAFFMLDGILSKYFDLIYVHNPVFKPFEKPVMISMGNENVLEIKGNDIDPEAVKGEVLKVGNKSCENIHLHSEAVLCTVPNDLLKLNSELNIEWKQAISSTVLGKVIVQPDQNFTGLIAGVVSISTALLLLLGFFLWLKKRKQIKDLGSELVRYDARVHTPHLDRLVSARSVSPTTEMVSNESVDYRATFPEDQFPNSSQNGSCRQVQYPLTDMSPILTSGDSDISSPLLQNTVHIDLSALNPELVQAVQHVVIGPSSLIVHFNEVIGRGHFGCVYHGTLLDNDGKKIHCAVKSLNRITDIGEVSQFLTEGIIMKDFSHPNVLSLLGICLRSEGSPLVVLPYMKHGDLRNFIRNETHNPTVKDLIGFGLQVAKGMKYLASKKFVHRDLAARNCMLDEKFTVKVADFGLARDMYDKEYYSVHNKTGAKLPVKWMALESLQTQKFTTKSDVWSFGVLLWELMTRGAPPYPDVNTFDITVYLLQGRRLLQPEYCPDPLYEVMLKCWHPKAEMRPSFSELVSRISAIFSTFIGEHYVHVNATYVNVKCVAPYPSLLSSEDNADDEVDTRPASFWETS

SMILES | Ki [1] [nM] | Ki [2] [nM] | Ki [3] [nM] | Ki [4] [nM] | Ki [5] [nM]
Fc1cccc(-c2cnoc2-c2c[nH]c3ccccc23)c1F [Compound 29, 3-[4-(2,3-Difluoro-phenyl)-isoxazol-5-yl]-1H-indole] | 1000 to 12500 | 1000 to 12500 | 1000 to 12500 | – | –
CN1CCN(c2ccc(-c3cnc4[nH]cc(-c5nncn5-c5cccc(F)c5F)c4c3)cc2N)CC1 [Compound 129, 5-{3-[4-(2,3-Difluoro-phenyl)-4H-[1,2,4]triazol-3-yl]-1H-pyrrolo[2,3-b]pyridin-5-yl}-2-(4-methyl-piperazin-1-yl)-phenylamine] | < 200 | – | – | 200 to 1000 | < 200
OCC1CCN(c2ccc(-c3cnc4[nH]cc(-c5nncn5-c5cccc(F)c5F)c4c3)cn2)CC1 [Compound 120, (5′-{3-[4-(2,3-Difluoro-phenyl)-4H-[1,2,4]triazol-3-yl]-1H-pyrrolo[2,3-b]pyridin-5-yl}-3,4,5,6-tetrahydro-2H-[1,2′]bi-pyridinyl-4-yl)-methanol] | < 200 | – | – | 1000 to 12500 | 200 to 1000
Fc1cccc(-n2cnnc2-c2c[nH]c3ncc(-c4ccc(N5CCOCC5)nc4)cc23)c1F [Compound 121, 3-[4-(2,3-Difluoro-phenyl)-4H-[1,2,4]triazol-3-yl]-5-(6-morpholin-4-yl-pyridin-3-yl)-1H-pyrrolo[2,3-b]pyridine] | < 200 | – | – | 1000 to 12500 | 200 to 1000
